What was measured:
[1] = tested on: p-Stat3; test: Western blotting of gastrocnemius muscle lysates of CKD mice: p-Stat3; format: in vivo; settings: 12.5 mg/kg i.p. every other day for 2 weeks, western blotting (FIG. 1D)
Method: Animals: The experimental procedures were approved by the Institutional Animal Care and Use Committee of Baylor College of Medicine. Wild type (WT) mice (C57BL/6) were purchased from Jackson lab (Bar Harbor, Me.). To create a model of CKD, 8-10 week old mice underwent subtotal nephrectomy or sham-operated control as described; ^31 CKD mice with a BUN 80 mg/dl were studied. […] Antibodies: The primary antibodies of p-Akt (Ser473) (D9E) #4060, Akt (40D4)#2920, p-Stat3 (Tyr705) ([MUT])#9145, Stat3(124H6)#9139 were from Cell Signaling technology (Beverly, Mass., USA). Antibody against Fbxo40 #ab190688 was from Abcam (Cambridge, Mass., USA). Antibody against IRS1 #611395 was obtained from BD Biosciences (San Jose, Calif.). Anti-GAPDH#PA1-987 was from Thermo Fisher Scientific. The antibody was verified by the molecular size of recognized proteins.

[2] = tested on: p-Akt; test: Western blotting of gastrocnemius muscle lysates of CKD mice: p-Akt; format: in vivo; settings: 12.5 mg/kg i.p. every other day for 2 weeks, western blotting (FIG. 1D)
Method: (§1) Animals: The experimental procedures were approved by the Institutional Animal Care and Use Committee of Baylor College of Medicine. Wild type (WT) mice (C57BL/6) were purchased from Jackson lab (Bar Harbor, Me.). To create a model of CKD, 8-10 week old mice underwent subtotal nephrectomy or sham-operated control as described; ^31 CKD mice with a BUN 80 mg/dl were studied. CKD or sham-operated control mice were assigned to two subgroups: one subgroup was injected intraperitoneally with TTI-101 (12.5 mg/kg body weight in D5W) every other day for 2 weeks, while the other subgroup received an identical volume of D5W for 2 weeks. Antibodies: The primary antibodies of p-Akt (Ser473) (D9E) #4060, Akt (40D4)#2920, p-Stat3 (Tyr705) ([…])#9145, Stat3(124H6)#9139 were from Cell Signaling technology (Beverly, Mass., USA). Antibody against Fbxo40 #ab190688 was from Abcam (Cambridge, Mass., USA). Antibody against IRS1 #611395 was obtained from BD Biosciences (San Jose, Calif.). Anti-GAPDH#PA1-987 was from Thermo Fisher Scientific. The antibody was verified by the molecular size of recognized proteins.

[3] = tested on: Fbxo40; test: Western blotting of tibialis anterior muscle lysates of CKD mice: Fbxo40 protein; format: in vivo; settings: western blotting (FIGS. 2I and 2J)
Method: as §1

[4] = tested on: IRS1; test: qPCR of IRS1 mRNA in TA muscles of CKD mice; format: in vivo; settings: vs D5W diluent (FIG. 2H)
Method: (§2) Animals: The experimental procedures were approved by the Institutional Animal Care and Use Committee of Baylor College of Medicine. Wild type (WT) mice (C57BL/6) were purchased from Jackson lab (Bar Harbor, Me.). To create a model of CKD, 8-10 week old mice underwent subtotal nephrectomy or sham-operated control as described; ^31 CKD mice with a BUN ˜80 mg/dl were studied. CKD or sham-operated control mice were assigned to two subgroups: one subgroup was injected intraperitoneally with TTI-101 (12.5 mg/kg body weight in D5W) every other day for 2 weeks, while the other subgroup received an identical volume of D5W for 2 weeks.
(§3) RNA extraction and quantitative real-time PCR (qPCR): RNAs were isolated using the RNeasy kit (Qiagen, Valencia, Calif.) as instructed by the company. RT-PCR was performed to obtain relative gene expressions by calculating cycle threshold (Ct) values using GAPDH as an internal control (relative expression=2(sample Ct−GAPDH Ct)).^35 Sequences of primers will be provided upon request.

[5] = tested on: Fbxo40; test: qPCR of Fbxo40 mRNA in TA muscles of CKD mice; format: in vivo; settings: vs D5W diluent (FIG. 2G)
Method: as §2, §3

[6] = tested on: mice with CKD; settings: earlier experiments (refs 33, 34); cited from earlier work
[7] = tested on: p-Akt; test: Western blotting of muscle lysates of HFD mice: p-Akt; format: in vivo; settings: 12.5 mg/kg i.p. every other day for 4 weeks, vs diluent (FIG. 3J)
Method: (§4) Another model was generated of insulin resistance by feeding wild type mice a high fat diet (HFD: 58% kcal from fat, Research Diets, New Brunswick, N.J.) for 12 weeks while control mice were fed the regular diet (RD: 11% kcal from fat). To study the effect of p-Stat3 on insulin resistance, HFD-fed mice were randomly assigned to two subgroups: one subgroup was injected intraperitoneally (i.p.) with TTI-101 (12.5 mg/kg body weight in D5W) every other day for 4 weeks, while the other subgroup received an identical volume of D5W for 4 weeks. Antibodies: The primary antibodies of p-Akt ([…]) (D9E) #4060, Akt (40D4)#2920, p-Stat3 ([…]) (D3A7)#9145, Stat3(124H6)#9139 were from Cell Signaling technology (Beverly, Mass., USA). Antibody against Fbxo40 #ab190688 was from Abcam (Cambridge, Mass., USA). Antibody against IRS1 #611395 was obtained from BD Biosciences (San Jose, Calif.). Anti-GAPDH#PA1-987 was from Thermo Fisher Scientific. The antibody was verified by the molecular size of recognized proteins.

[8] = tested on: IRS1; test: Western blotting of muscle lysates of HFD mice: IRS1; format: in vivo; settings: 12.5 mg/kg i.p. every other day for 4 weeks, vs diluent (FIG. 3J)
Method: as §4

[9] = tested on: mice with CKD; test: CKD mice (subtotal nephrectomy): body weight, fasting blood glucose, glucose tolerance test; format: in vivo
Method: Animals: The experimental procedures were approved by the Institutional Animal Care and Use Committee of Baylor College of Medicine. Wild type (WT) mice (C57BL/6) were purchased from Jackson lab (Bar Harbor, Me.). To create a model of CKD, 8-10 week old mice underwent subtotal nephrectomy or sham-operated control as described; ^31 CKD mice with a BUN ˜80 mg/dl were studied. CKD or sham-operated control mice were assigned to two subgroups: one subgroup was injected intraperitoneally with TTI-101 (12.5 mg/kg body weight in D5W) every other day for 2 weeks, while the other subgroup received an identical volume of D5W for 2 weeks. For glucose tolerance tests (GTT), mice with free access to water were fasted for 16 hrs and then injected intraperitoneally (i.p.) with […] and tail vein blood was collected at 0, 30, 60 and 120 min intervals to measure blood glucose concentrations using a True Track Glucometer. For insulin tolerance test (ITT), mice were fasted for 4 hrs, then were injected i.p. with 2 units/kg insulin; tail vein blood was collected after 0, 30, 60 and 120 min to measure blood glucose concentrations. Changes in blood glucose were analyzed as the “area under curve” (AUC) method using Statstodo program (http://www.statstodo.com/AUC_Exp.php).

[10] = tested on: HFD-fed mice; test: High fat diet (HFD) mice: fasting blood glucose, glucose tolerance test, insulin tolerance test; format: in vivo; settings: mice fed HFD 12 weeks
Method: Another model was generated of insulin resistance by feeding wild type mice a high fat diet (HFD: 58% kcal from fat, Research Diets, New Brunswick, N.J.) for 12 weeks while control mice were fed the regular diet (RD: 11% kcal from fat). To study the effect of p-Stat3 on insulin resistance, HFD-fed mice were randomly assigned to two subgroups: one subgroup was injected intraperitoneally (i.p.) with TTI-101 (12.5 mg/kg body weight in D5W) every other day for 4 weeks, while the other subgroup received an identical volume of D5W for 4 weeks. For glucose tolerance tests (GTT), mice with free access to water were fasted for 16 hrs and then injected intraperitoneally (i.p.) with […] and tail vein blood was collected at 0, 30, 60 and 120 min intervals to measure blood glucose concentrations using a True Track Glucometer. For insulin tolerance test (ITT), mice were fasted for 4 hrs, then were injected i.p. with 2 units/kg insulin; tail vein blood was collected after 0, 30, 60 and 120 min to measure blood glucose concentrations. Changes in blood glucose were analyzed as the “area under curve” (AUC) method using Statstodo program (http://www.statstodo.com/AUC_Exp.php).

With `COc1ccc(S(=O)(=O)Nc2cc(-c3c(O)ccc4ccccc34)c(O)c3ccccc23)cc1` [TTI-101, N-(1′,2-dihydroxy-1,2′-binaphthalen-4′-yl)-4-methoxybenzenesulfonamide] the “p-Stat3 in muscle lysates” value [1] was “suppressed”, the “p-Akt in muscle lysates” value [2] was “increasing” and the “Fbxo40 protein in muscles” value [3] was “significantly decreased”. For the same compound, the “IRS1 mRNAs in muscles” value [4] was “increased”, the “Fbxo40 mRNA in muscles” value [5] was “suppression” and the “body weights of mice” value [6] was “increases”. For the same compound, the “p-Akt levels in muscles” value [7] was “higher levels”, the “IRS1 levels in muscles” value [8] was “higher levels” and the glucose tolerance ([9]; 12.5 mg/kg i.p. every other day for 2 weeks, vs D5W diluent (FIG. 1C)) was “significantly improved”. The body weight ([9]; 12.5 mg/kg i.p. every other day, after 2 weeks of treatment, vs D5W diluent (FIG. 1A)) was “increased”, the “blood glucose levels (fasting, 16 hr)” value ([9]; 12.5 mg/kg i.p. every other day, after 2 weeks of treatment, vs D5W diluent (FIG. 1B)) was “decreased” and the “fasting values of blood glucose” value ([10]; then 12.5 mg/kg i.p. every other day for 4 weeks with HFD continued, vs diluent (FIG. 3G)) was “decreased”. For the same compound, the glucose tolerance ([10]; then 12.5 mg/kg i.p. every other day for 4 weeks, vs diluent (FIG. 3H)) was “improved” and the insulin tolerance ([10]; then 12.5 mg/kg i.p. every other day for 4 weeks, vs diluent (FIG. 3I)) was “improved”.
